# Assay results: DBAASP
# How the values were obtained:
# Assay in all cases: ≥ marks a high value that may be exact or a test limit, other limits are often not marked, values filed in µg/mL are converted to µM
# [1] = system: Saccharomyces cerevisiae
# [2] = system: Escherichia coli 363 ATCC 11775
# [3] = system: Bacillus megaterium ATCC 9885
# [4] = system: Klebsiella pneumoniae
# [5] = system: Salmonella typhimurium
# [6] = system: Enterobacter cloacae ATCC 11775
# [7] = system: Neisseria meningitidis
# [8] = system: Candida albicans
# [9] = system: Staphylococcus aureus ATCC 25923
# [10] = system: Salmonella enterica subsp. enterica serovar Enteritidis
# [11] = system: Pseudomonas aeruginosa
# [12] = system: Vibrio cholerae
# [13] = system: Staphylococcus haemolyticus
# [14] = system: Pseudomonas aeruginosa ATCC 9027
# [15] = system: Proteus vulgaris NCTC 4635
# [16] = system: Escherichia coli ATCC 8739
# [17] = system: Staphylococcus aureus ATCC 6538
# [18] = system: Bacillus subtilis ATCC 9372
# [19] = system: Pseudomonas aeruginosa ATCC 27853
# [20] = system: Proteus mirabilis ATCC 25933
# [21] = system: Staphylococcus aureus ATCC 29213
# [22] = system: Staphylococcus epidermidis RP62A
# [23] = system: Stenotrophomonas maltophilia
# [24] = system: Acinetobacter baumannii
# [25] = system: Candida albicans ATCC 90028
# [26] = system: Staphylococcus epidermidis RP62A/1
# [27] = system: Klebsiella pneumoniae ATCC 700603
# [28] = system: Escherichia coli ATCC 25726
# [29] = system: Staphylococcus aureus CIP 53.156
# [30] = system: Staphylococcus xylosus
# [31] = system: Staphylococcus aureus
# [32] = system: Staphylococcus xylosus ATCC 35033
# [33] = system: Beauveria bassiana CGMCC 3.3576
# [34] = system: Saccharomyces cerevisiae CGMCC 2.1619
# [35] = system: Klebsiella aerogenes CGMCC 1.2021
# [36] = system: Salmonella typhimurium CGMCC 1.1174
# [37] = system: Enterococcus faecalis CGMCC 1.100
# [38] = system: Providencia rettgeri CMCC 49256
# [39] = system: Proteus vulgaris CGMCC 1.1651
# [40] = system: Tetragenococcus halophilus CGMCC 1.2492
# [41] = system: Acetobacterium wieringae CGMCC 1.2033
# [42] = system: Bacillus cereus CMCC 1.126
# [43] = system: Alcaligenes faecalis CGMCC 1.924
# [44] = system: Penicillium sp. ATCC 30106
# [45] = system: Corynebacterium glutamicum CGMCC 1.818
# [46] = system: Pseudomonas aeruginosa CMCC 10104
# [47] = system: Enterobacter cloacae CGMCC 1.58
# [48] = system: Bacillus subtilis CGMCC 1.88
# [49] = system: Bacillus thuringiensis serovar israelensis H14
# [50] = system: Candida albicans CMCC 98001
# [51] = system: Micrococcus luteus AB206228
# [52] = system: Aspergillus flavus CGMCC 3.6433
# [53] = system: Escherichia coli CGMCC 1.1369
smiles,measurement,setting,value
CC(C)C[C@H](NC(=O)[C@H](CC(C)C)NC(=O)[C@H](CCCCN)NC(=O)CNC(=O)[C@H](C)NC(=O)[C@@H](NC(=O)[C@H](CCCCN)NC(=O)[C@H](CC(C)C)NC(=O)[C@H](CC(C)C)NC(=O)[C@H](CC(=O)O)NC(=O)[C@@H](NC(=O)[C@@H](NC(=O)[C@@H](NC(=O)CN)C(C)C)C(C)C)[C@@H](C)O)[C@@H](C)O)C(=O)NCC(=O)N[C@@H](CC(N)=O)C(=O)N[C@@H](CC(C)C)C(=O)N[C@H](C(=O)NCC(=O)N[C@@H](CO)C(=O)N[C@@H](CC(C)C)C(=O)N[C@@H](CO)C(=O)NCC(N)=O)C(C)C [GVVTDLLKTAGKLLGNLVGSLSG],MIC,[1],≥ 300 µM
same,MIC,[2],12.5 µM
same,MIC,[3],12.5 µM
same,MIC,[4],100 µM
same,MIC,[5],≥ 50 µM
same,MIC,[6],≥ 100 µM
same,MIC,[7],≥ 100 µM
same,MIC,[8],150 µM
same,MIC,[9],50.5 µM
same,MIC,[10],25 µM
same,MIC,[11],100 µM
same,MIC,[12],25 µM
same,MIC,[13],≥ 100 µM
CC[C@H](C)[C@H](N)C(=O)N[C@@H](CCCCN)C(=O)N[C@@H](CCCCN)C(=O)N[C@H](C(=O)N[C@@H](C)C(=O)N[C@@H](CO)C(=O)N[C@H](C(=O)O)C(C)C)C(C)C [IKKVASV],MIC,[14],1380 µM
same,MIC,[15],≥ 1380 µM
same,MIC,[16],≥ 1380 µM
same,MIC,[17],> 1380 µM
same,MIC,[18],≥ 1380 µM
CC[C@H](C)[C@H](N)C(=O)N[C@@H](CCCCN)C(=O)N[C@@H](CC(C)C)C(=O)N[C@@H](CO)C(=O)N1CCC[C@H]1C(=O)N[C@@H](CCC(=O)O)C(=O)N[C@H](C(=O)N[C@@H](CCCCN)C(=O)N[C@@H](CC(=O)O)C(=O)N[C@@H](CC(N)=O)C(=O)N[C@@H](CC(C)C)C(=O)N[C@@H](CCCCN)C(=O)N[C@@H](CCCCN)C(=O)N[C@H](C(=O)N[C@@H](CC(C)C)C(=O)N[C@@H](CCCCN)C(=O)NCC(=O)N[C@@H](C)C(=O)N[C@H](C(=O)N[C@@H](CCCCN)C(=O)NCC(=O)N[C@@H](C)C(=O)N[C@H](C(=O)N[C@@H](C)C(=O)N[C@H](C(=O)N[C@@H](C)C(=O)N[C@@H](CCCCN)C(=O)N[C@@H](CCSC)C(=O)N[C@H](C(N)=O)C(C)C)C(C)C)[C@@H](C)CC)[C@@H](C)CC)C(C)C)[C@@H](C)O [IKLSPETKDNLKKVLKGAIKGAIAVAKMV],MIC,[19],40 µM
same,MIC,[4],25 µM
same,MIC,[20],≥ 100 µM
same,MIC,[21],12.5 µM
same,MIC,[22],3.1 µM
same,MIC,[9],10 µM
same,MIC,[23],6.25 µM
same,MIC,[24],6.25 µM
same,MIC,[25],≥ 80 µM
same,MIC,[26],1.6 µM
same,MIC,[27],20 µM
same,MIC,[28],20 µM
CC[C@H](C)[C@H](NC(=O)[C@@H](N)CCCCN)C(=O)N[C@@H](CCCCN)C(=O)N[C@H](C(=O)N1CCC[C@H]1C(=O)N[C@@H](Cc1c[nH]c2ccccc12)C(=O)NCC(=O)N[C@@H](CCCCN)C(=O)N[C@H](C(=O)N[C@@H](CCCCN)C(=O)N[C@@H](CC(=O)O)C(=O)N[C@@H](Cc1ccccc1)C(=O)N[C@@H](CC(C)C)C(=O)N[C@H](C(=O)NCC(=O)NCC(=O)N[C@@H](CCSC)C(=O)N[C@@H](CCCCN)C(=O)N[C@@H](C)C(=O)N[C@H](C(=O)O)C(C)C)C(C)C)C(C)C)[C@@H](C)CC [KIKIPWGKVKDFLVGGMKAV],MIC,[29],≥ 57 µM
same,MIC,[30],1.35 µM
same,MIC,[31],15.4 µM
same,MIC,[32],2.08 µM
CC[C@H](C)[C@H](NC(=O)[C@H](Cc1ccccc1)NC(=O)[C@H](CCCCN)NC(=O)[C@H](C)NC(=O)[C@@H](NC(=O)[C@H](CO)NC(=O)[C@H](CCCCN)NC(=O)[C@H](CCSC)NC(=O)[C@H](C)NC(=O)[C@H](CCCCN)NC(=O)[C@H](Cc1ccccc1)NC(=O)[C@H](Cc1c[nH]c2ccccc12)NC(=O)CNC(=O)[C@H](CCCCN)NC(=O)[C@@H](N)CCCN=C(N)N)[C@@H](C)CC)C(=O)N[C@@H](C)C(=O)N[C@@H](CCCCN)C(=O)N[C@@H](CCC(=O)O)C(=O)N[C@@H](CCCCN)C(=O)N[C@@H](CC(C)C)C(=O)N[C@@H](CCCCN)C(=O)N[C@@H](CCC(=O)O)C(=O)N[C@@H](Cc1cnc[nH]1)C(=O)N[C@@H](CC(C)C)C(=O)O [RKGWFKAMKSIAKFIAKEKLKEHL],MIC,[33],6.2 µM
same,MIC,[34],≥ 50 µM
same,MIC,[35],12.5 µM
same,MIC,[36],12.5 µM
same,MIC,[37],25 µM
same,MIC,[38],6.2 µM
same,MIC,[39],6.2 µM
same,MIC,[40],3.1 µM
same,MIC,[41],3.1 µM
same,MIC,[42],6.2 µM
same,MIC,[43],3.1 µM
same,MIC,[44],3.1 µM
same,MIC,[45],3.1 µM
same,MIC,[46],6.2 µM
same,MIC,[47],≥ 50 µM
same,MIC,[48],12.5 µM
same,MIC,[49],12.5 µM
same,MIC,[50],≥ 50 µM
same,MIC,[51],3.1 µM
same,MIC,[52],3.1 µM
same,MIC,[53],25 µM
